Results as given in US20100022629A1, “Dietary Methods and Compositions for Enhancing Metabolism and Reducing Reactive Oxygen Species” (Elixirin, priority 2006, published 2010).

What was measured:
[1] = tested on: men and women diagnosed with a recent MI; details: 4 grams/day for 12 months plus standard pharmacological treatment; control group 12.5%; cited from earlier work
Fischer 344 male rats = test: Morris water maze spatial memory test; format: in vivo; details: fed 7 weeks, 5 per group, SD around 20%
From the text: FIG. 1 of 2 depicts measurements of spatial memory in (Fischer 344 male rats) subjected to a water maze test, after treatment with carnitine, lipoic acid, and/or polyphenol. […] The Morris maze task tests spatial memory by requiring rats to find a submerged platform in a pool of water using external visual cues (Morris, R. 1984; J. Neurosci. Methods, 11:47-60; Schenk, F. and Morris, R, Exp. Brain Res. 58:11-28, 1985). The rats in the experimental group (5 each) were fed either 0.5% (wt/vol) acetyl-L-carnitine in water, 1.0% (wt/vol) polyphenol in water; 0.2% (wt/wt) lipoic acid in AIN93M diet, or a combination of the above. Rats were acclimated for one week before experiments. Rats were fed for the above treatment for 7 weeks before tests. Trials (4 consecutive days, 4 trials per day) were conducted and the results averaged. The standard deviation is around 20%. Control rats were fed with water and AIN93M diet only.

[2] = tested on: 8-hydroxy-2′-deoxyguanosine/8-hydroxyguanosine; test: Oxidation level of DNA in hippocampus sections (anti-8-hydroxy-2′-deoxyguanosine/8-hydroxyguanosine immunocytochemistry); format: in vivo, rats; details: rat hippocampus, fed 7 weeks, mean of 5 animals, SD about 15%
From the text: The rats in the experimental group (5 each) were fed either 0.5% (wt/vol) acetyl-L-carnitine in water, 1.0% (wt/vol) polyphenol in water; 0.2% (wt/wt) lipoic acid in AIN93M diet, or a combination of the above. Rats were acclimated for one week before experiments. Rats were fed for the above treatment for 7 weeks before tests. Control rats were fed with water and AIN93M diet only. For assaying DNA oxidation, rats from each treatment group (5 animals per group) was anesthetized with ether and perfused with paraformaldehyde. The brain was removed and postfixed for paraffin sections. Sections of hippocampus were incubated with anti-8-hydroxy-2′-deoxyguanosine/8-hydroxyguanosine and visualized by using standard immunocytochemical methods. Quantification of oxidation was done as described in Liu, J K, et al., (Proc. Natl. Acad. Sci. USA, 99:[…], 2002). Values are a mean of 5 animals. The standard deviation is about 15%.

| SMILES | mortality after one year of treatment [1] [%] | mastery of the water maze over no treatment (Fischer 344 male rats) | DNA oxidation level compared with rats having no treatment [2] |
| --- | --- | --- | --- |
| C[N+](C)(C)C[C@H](O)CC(=O)[O-] [L-carnitine] | 1.2 |  |  |
| C[N+](C)(C)CC(O)CC(=O)[O-] (centres unmarked) [carnitine] |  | approximately 80% | approximately 112% |
| O=C(O)CCCCC1CCSS1 (centres unmarked) [lipoic acid, 1,2-dithiolane-3-pentanoic acid] |  | ~79% | ~82% |
